Measurements taken from ChEMBL document CHEMBL1201862, “PubChem BioAssay data set” (2004).
Activity calls are given as the source filed them.

Experiments:
Streptokinase A = target: T1, Streptokinase A (Streptococcus pyogenes serotype M1, UniProt P10520); assay: viability-normalized secreted streptokinase activity reduction – plasminogen activation absorbance, OD405, dose response (AID 1914); assay type: functional, Streptococcus pyogenes M1 GAS;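 further: secreted streptokinase activity via plasminogen activation per viability signal from cell pellet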
T1 sequence (P10520 whole entry): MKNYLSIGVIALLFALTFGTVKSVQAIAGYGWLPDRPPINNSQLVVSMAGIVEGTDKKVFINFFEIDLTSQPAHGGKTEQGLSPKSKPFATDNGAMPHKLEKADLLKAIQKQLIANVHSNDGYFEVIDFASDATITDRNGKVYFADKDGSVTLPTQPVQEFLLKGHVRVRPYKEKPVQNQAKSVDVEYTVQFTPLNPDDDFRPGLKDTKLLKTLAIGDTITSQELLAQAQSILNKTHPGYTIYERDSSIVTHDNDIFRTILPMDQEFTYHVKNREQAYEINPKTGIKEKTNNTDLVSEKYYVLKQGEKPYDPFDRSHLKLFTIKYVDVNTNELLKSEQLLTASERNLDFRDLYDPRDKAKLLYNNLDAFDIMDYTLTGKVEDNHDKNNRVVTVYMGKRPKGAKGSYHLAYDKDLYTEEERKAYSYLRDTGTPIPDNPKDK

[1] = tested on: Streptococcus sp. 'group A'; assay: Streptococcus pyogenes SK(-)GAS viability under kanamycin – luminescence, BacTiterGlo, confirmation, counter-screen for streptokinase expression inhibitor project, dose response (AID 1900); assay type: functional, organism-based
Streptococcus = assay: GAS UMAA2166 growth inhibition – luminescence, BacTiterGlo, counter-screen for streptokinase expression inhibitor project, dose response (AID 1915); assay type: functional, organism-based;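 further: potency for reduction of bacterial viability or growth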
[2] = target: T2, Ubiquitin-conjugating enzyme E2 N (Homo sapiens, UniProt P61088); assay type: functional;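 further: Dose-response confirmation in a TR-FRET assay detecting UBC13-driven polyubiquitin chain formation, inhibition measured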
T2 sequence (P61088 whole entry): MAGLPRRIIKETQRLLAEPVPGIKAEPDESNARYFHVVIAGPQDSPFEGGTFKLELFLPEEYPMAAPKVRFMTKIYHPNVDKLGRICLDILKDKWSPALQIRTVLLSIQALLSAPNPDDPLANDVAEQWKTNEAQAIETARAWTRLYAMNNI

[3] = viability of uninfected HEp-2 cells – cell-based, HTS, cytotoxicity control for RSV inhibitor project, dose response (AID 2410); assay type: functional; conditions: human respiratory syncytial virus
Fatty acid synthase [4] = target: T3, Fatty acid synthase (Homo sapiens, UniProt P49327); assay: inhibition of human FAS-TE enzyme activity – biochemical, endpoint fluorescence intensity, uHTS hits, dose response (AID 624327); assay type: functional;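 further: fluorescence from hydrolysis of an O-methyl fluorescein acyl ester substrate by the enzyme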
T3 sequence (P49327 whole entry): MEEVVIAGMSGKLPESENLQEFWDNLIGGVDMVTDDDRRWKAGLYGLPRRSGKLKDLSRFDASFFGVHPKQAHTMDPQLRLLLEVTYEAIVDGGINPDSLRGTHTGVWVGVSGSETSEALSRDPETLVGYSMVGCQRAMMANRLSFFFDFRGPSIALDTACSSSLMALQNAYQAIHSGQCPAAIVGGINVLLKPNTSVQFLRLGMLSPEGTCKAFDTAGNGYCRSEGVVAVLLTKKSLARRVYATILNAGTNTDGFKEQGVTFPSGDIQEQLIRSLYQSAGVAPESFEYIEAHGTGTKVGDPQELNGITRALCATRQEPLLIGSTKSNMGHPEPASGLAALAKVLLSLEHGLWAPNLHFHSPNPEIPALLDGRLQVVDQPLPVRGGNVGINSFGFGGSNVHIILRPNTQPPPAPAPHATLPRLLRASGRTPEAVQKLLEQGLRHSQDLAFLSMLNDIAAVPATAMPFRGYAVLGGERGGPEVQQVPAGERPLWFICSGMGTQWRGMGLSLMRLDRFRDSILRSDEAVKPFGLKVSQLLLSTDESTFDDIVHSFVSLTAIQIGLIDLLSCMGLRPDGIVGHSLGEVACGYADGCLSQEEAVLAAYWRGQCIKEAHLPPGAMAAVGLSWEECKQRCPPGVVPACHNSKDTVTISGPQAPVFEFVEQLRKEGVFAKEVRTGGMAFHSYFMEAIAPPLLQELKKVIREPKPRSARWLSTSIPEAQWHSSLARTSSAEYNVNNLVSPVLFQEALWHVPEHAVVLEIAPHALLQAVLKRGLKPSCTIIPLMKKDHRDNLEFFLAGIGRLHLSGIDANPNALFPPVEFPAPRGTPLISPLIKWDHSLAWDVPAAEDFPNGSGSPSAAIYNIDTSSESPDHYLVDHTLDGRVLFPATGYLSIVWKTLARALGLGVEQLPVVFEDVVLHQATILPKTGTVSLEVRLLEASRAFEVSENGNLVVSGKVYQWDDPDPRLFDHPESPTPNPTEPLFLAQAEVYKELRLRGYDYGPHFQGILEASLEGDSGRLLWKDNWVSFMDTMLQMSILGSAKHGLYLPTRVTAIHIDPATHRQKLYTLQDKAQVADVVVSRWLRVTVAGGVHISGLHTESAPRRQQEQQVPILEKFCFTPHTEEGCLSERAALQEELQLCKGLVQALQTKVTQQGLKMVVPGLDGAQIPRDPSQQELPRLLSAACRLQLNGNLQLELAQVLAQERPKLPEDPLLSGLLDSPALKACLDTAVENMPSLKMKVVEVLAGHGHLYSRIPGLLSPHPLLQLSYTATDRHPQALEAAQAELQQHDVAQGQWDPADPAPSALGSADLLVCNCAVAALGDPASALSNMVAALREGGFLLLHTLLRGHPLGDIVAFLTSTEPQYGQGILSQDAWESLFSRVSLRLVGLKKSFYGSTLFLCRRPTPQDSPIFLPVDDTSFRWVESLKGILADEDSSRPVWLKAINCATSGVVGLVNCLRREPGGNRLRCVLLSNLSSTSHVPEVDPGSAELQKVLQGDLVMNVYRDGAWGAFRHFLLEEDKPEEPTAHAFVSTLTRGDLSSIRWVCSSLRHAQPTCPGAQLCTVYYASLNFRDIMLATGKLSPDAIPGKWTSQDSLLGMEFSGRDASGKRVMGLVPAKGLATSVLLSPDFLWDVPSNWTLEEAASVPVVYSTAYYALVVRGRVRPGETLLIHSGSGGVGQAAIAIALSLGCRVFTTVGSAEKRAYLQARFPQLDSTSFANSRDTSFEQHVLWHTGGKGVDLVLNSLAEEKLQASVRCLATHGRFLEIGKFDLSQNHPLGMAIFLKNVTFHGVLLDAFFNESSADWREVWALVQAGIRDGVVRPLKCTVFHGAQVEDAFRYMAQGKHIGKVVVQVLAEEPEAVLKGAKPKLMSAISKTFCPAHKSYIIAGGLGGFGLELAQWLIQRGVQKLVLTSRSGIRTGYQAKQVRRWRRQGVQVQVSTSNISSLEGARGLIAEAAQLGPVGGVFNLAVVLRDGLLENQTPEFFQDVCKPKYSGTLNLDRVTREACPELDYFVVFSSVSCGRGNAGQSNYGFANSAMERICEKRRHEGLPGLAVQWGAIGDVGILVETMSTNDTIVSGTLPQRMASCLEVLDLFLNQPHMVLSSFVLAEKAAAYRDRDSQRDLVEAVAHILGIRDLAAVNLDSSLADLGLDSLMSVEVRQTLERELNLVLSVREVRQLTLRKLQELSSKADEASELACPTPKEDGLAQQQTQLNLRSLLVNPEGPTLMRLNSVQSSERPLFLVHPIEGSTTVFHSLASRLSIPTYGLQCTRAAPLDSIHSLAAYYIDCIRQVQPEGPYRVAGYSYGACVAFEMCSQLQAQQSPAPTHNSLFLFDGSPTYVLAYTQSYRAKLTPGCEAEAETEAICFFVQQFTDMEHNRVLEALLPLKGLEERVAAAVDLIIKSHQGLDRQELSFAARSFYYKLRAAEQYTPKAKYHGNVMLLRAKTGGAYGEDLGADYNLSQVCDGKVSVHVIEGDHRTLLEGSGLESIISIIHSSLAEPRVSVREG

Fatty acid synthase [5] = target: T3, Fatty acid synthase; assay: inhibition of human FAS-TE enzyme activity – biochemical, kinetic fluorescence intensity, dose response (AID 624326); assay type: functional;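 further: rate of fluorescence rise from hydrolysis of a fluorogenic O-methyl fluorescein ester substrate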
Vero = assay: cells; assay type: functional; conditions: Chlorocebus sabaeus
[6] = target: Induced myeloid leukemia cell differentiation protein Mcl-1 (Homo sapiens, UniProt Q07820); assay type: functional
Sequence of Induced myeloid leukemia cell differentiation protein Mcl-1 (Q07820 whole entry, the tested form may be a part): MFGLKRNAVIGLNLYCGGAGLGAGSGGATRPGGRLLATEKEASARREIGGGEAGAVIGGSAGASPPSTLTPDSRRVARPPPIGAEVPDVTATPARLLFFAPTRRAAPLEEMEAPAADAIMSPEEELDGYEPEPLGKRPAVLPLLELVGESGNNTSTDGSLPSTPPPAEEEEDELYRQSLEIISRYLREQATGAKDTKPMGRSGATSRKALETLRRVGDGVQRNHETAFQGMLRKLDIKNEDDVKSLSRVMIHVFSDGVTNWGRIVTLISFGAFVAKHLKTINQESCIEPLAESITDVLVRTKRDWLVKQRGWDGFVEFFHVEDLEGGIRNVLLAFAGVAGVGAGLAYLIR

[7] = target: T4, Carboxy-terminal domain RNA polymerase II polypeptide A small phosphatase 1 (Homo sapiens, UniProt Q9GZU7); assay: CTDSP1 inhibitors, concentration-response, biochemical, absorbance readout, ultra-high-throughput screen actives (AID 540297); assay type: functional
T4 sequence (Q9GZU7 whole entry): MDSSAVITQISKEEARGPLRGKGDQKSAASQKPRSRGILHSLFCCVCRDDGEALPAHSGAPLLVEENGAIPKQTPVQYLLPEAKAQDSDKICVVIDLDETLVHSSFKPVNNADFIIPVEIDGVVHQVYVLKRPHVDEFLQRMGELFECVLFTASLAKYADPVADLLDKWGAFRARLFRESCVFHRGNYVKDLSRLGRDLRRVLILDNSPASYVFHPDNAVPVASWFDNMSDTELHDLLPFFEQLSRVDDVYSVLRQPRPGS

[8] = target: T5, Short transient receptor potential channel 4 (Mus musculus, UniProt Q9QUQ5); assay: calcium entry via TRPC4 opening agents – cell-based, HEK293 TRPC4/mu-opioid, Fluo-4 calcium, dose response (AID 434937); assay type: functional
T5 sequence (Q9QUQ5 whole entry): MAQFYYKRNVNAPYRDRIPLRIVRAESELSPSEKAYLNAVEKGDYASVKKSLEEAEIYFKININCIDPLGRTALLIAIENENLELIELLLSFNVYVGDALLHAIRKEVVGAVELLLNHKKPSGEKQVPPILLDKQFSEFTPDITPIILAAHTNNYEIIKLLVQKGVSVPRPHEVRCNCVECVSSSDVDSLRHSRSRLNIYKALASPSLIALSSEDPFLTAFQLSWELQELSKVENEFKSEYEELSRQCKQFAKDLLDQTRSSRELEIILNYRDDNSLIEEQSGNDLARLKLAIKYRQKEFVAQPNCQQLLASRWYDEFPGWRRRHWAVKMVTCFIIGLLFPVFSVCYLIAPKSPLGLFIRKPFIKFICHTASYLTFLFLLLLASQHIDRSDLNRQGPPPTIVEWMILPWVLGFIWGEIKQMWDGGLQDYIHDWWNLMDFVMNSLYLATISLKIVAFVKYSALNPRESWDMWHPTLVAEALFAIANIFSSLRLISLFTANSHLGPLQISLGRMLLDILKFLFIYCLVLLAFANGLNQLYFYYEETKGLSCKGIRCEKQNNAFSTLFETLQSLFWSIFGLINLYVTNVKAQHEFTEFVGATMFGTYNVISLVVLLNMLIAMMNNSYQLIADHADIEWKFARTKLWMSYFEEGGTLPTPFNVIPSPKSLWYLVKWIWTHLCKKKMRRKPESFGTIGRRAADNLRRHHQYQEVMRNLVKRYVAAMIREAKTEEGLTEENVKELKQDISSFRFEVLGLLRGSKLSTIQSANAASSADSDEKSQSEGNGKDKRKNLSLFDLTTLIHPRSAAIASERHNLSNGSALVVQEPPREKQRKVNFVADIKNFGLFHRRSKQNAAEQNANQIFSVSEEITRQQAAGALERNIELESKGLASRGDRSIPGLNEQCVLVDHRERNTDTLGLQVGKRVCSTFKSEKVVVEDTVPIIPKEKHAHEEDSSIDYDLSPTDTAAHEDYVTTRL

[9] = viability of PTEN-deleted HCT116 cells – cell-based, HCT116 PTEN knockout, dose response (AID 1047); assay type: functional;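 further: HCT116 colon tumor cells with PTEN knocked out; cells exposed to compound for 60 hours before readout; potency for loss of cell viability measured by luminescence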
[10] = viability of HCT116 lacking mutant beta-catenin – cell-based, human colon tumor, dose response (AID 1045); assay type: functional;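 further: HCT116 colon tumor cells with beta catenin knocked out; cells exposed to compound for 60 hours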
Cytochrome P450 3A4 = Cytochrome P450 3A4 (Homo sapiens, UniProt P08684); conditions: Potency;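 further: confirmatory qHTS run detecting inhibitors and substrates of CYP3A4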
Sequence of Cytochrome P450 3A4 (P08684 whole entry): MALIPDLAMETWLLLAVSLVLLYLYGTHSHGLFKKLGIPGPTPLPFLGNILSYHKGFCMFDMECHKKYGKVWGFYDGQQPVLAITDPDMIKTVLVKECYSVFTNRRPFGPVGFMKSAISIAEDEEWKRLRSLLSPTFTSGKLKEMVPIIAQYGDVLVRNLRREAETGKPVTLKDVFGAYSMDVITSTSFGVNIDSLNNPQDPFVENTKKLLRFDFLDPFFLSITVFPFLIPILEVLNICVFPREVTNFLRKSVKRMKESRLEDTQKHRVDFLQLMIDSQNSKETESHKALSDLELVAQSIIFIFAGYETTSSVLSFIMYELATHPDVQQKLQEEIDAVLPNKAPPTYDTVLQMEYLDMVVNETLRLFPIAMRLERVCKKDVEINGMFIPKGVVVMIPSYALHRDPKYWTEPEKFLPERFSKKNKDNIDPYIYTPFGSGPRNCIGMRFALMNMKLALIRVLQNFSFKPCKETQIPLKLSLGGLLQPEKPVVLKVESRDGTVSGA

BJ [11] = assay: cells; assay type: functional, cell-based; conditions: Homo sapiens
BJ [12] = assay: BJ-TERT-LT-ST fibroblast viability loss – cell-based, RAS-independent, luminescence, dose response (AID 1935); assay type: functional; conditions: Homo sapiens;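 further: BJ fibroblasts immortalized with TERT plus LT and ST oncogenes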
BJ [13] = assay: BJ-TERT fibroblast viability loss – cell-based, RAS-independent, luminescence, dose response (AID 1933); assay type: functional; conditions: Homo sapiens
[14] = DRD fibroblast viability loss – cell-based, non-viral oncogenic, luminescence, dose response (AID 1934); assay type: functional; conditions: Homo sapiens
Cytochrome P450 2C9 = Cytochrome P450 2C9 (Homo sapiens, UniProt P11712)
Sequence of Cytochrome P450 2C9 (P11712 whole entry): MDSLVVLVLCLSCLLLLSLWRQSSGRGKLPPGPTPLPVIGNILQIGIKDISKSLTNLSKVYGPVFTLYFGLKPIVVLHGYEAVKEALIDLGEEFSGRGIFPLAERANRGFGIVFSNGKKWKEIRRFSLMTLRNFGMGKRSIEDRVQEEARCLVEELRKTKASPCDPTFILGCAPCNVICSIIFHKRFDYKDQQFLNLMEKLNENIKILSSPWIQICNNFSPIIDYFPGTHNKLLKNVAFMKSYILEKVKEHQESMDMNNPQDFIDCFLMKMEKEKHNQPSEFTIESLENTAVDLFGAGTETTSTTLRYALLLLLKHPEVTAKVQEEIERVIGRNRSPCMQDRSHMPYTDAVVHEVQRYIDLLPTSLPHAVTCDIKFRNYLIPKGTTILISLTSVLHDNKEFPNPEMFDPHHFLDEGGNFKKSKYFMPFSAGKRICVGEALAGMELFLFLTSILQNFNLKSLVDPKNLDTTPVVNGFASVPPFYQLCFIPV

Cytochrome P450 2C19 = Cytochrome P450 2C19 (Homo sapiens, UniProt P33261); assay: Cytochrome panel assay with activity outcomes. Panel member name: p450-cyp2c19 Compounds with AC50 equal or less than 10 uM are considered active; assay type: functional; conditions: read-out: AC50
Sequence of Cytochrome P450 2C19 (P33261 whole entry): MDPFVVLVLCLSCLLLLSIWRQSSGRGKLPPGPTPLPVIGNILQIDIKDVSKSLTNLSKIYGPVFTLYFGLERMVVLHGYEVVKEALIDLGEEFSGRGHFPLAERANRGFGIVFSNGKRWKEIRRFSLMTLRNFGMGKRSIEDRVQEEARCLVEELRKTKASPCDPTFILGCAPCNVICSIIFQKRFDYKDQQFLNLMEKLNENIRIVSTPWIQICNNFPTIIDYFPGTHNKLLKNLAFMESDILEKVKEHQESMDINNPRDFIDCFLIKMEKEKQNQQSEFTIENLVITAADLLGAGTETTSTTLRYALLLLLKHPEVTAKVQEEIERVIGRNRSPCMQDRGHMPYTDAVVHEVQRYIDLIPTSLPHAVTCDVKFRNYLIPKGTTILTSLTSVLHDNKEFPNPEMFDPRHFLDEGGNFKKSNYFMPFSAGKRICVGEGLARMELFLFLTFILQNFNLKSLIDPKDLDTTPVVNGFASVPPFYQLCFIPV

[15] = Trypanosoma cruzi growth suppression in host cells – NIH3T3 host cells, beta-gal luminescence, confirmation (AID 2044); assay type: functional, cell-based;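 further: intracellular parasites grown in NIH/3T3 mouse fibroblasts as host cells; luminescent beta-galactosidase reporter signal from transgenic T. cruzi replicating inside host cells; inhibitors lower the luminescence signal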
[16] = NIH3T3 cell viability loss – ATP luminescence, mouse fibroblasts, counter-screen, dose response (AID 2010); assay type: functional, cell-based;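 further: cells exposed to compound for about 90 hours before reading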

N#Cc1c(-c2c(Cl)cccc2Cl)noc1/C=C/Nc1ccc(C(=O)O)cc1
IC50 (cells): 32.6 µM (active) | EC50 (Streptokinase A): > 150 µM (not active) | EC50 [1]: 1.95 µM (active) | EC50 (Streptococcus): 17.5 µM (active)

COc1ccc(C)cc1NC(=O)c1cc(S(=O)(=O)N2CCCCC2)ccc1N1CCOCC1
IC50 [2]: > 20 µM (inactive)

c1ccc(-c2nn3c(Cn4nnc5ccccc54)nnc3s2)cc1
IC50 (cells): > 25 µM (active)

COc1ccc2nc(NC(=O)c3ccccc3[N+](=O)[O-])sc2c1
IC50 (cells): 9.33 µM (active) | CC50 [3]: 45.6 µM (active)

CC(C)c1ccc(CCNC(=O)c2ccc([N+](=O)[O-])cc2)cc1
IC50 (Fatty acid synthase [4]): 1.51 µM (active) | IC50 (Fatty acid synthase [5]): 1.71 µM (active)

Cc1cc(O)c(C(=O)/C=C/c2cccc([N+](=O)[O-])c2)c(=O)o1
CC50 (Vero): 22.6 µM (active)

O=C(CCCc1ccccc1)Nc1cccc([N+](=O)[O-])c1
IC50 (Fatty acid synthase [4]): 7.58 µM (active) | IC50 (Fatty acid synthase [5]): 3.7 µM (active)

COCCCNC(=O)/C(C#N)=C/c1ccc(OCC(=O)O)c(OC)c1
IC50 [6]: 4.75 µM (active) | IC50 [7]: 2.19 µM (active)

N#Cc1c(-c2ccccc2)c(-c2ccccc2)nn(CC(=O)NNC(=O)Nc2ccc(Cl)cc2)c1=O
IC50 (Fatty acid synthase [4]): 3.55 µM (active) | IC50 (Fatty acid synthase [5]): 3.01 µM (active)

COc1ccc(C(=O)C2CCCN(C3CSCCSC3)C2)cc1OC (configuration not stated)
EC50 [8]: 0.944 µM (active)

CN(C)c1ccc(/C=C/C(=O)c2ccccc2)cc1[N+](=O)[O-]
EC50 [9]: 8.26 µM (active) | EC50 [10]: 7.13 µM (active)

CC(C)c1n[nH]c2c1C(C1C=CCCC1)C(C#N)=C(N)O2 (configuration not stated)
CC50 (Vero): 21.9 µM (active)

NCCCCc1ccc2ccc3cccc4ccc1c2c34
CC50 (Vero): 22.6 µM (active) | IC50 [2]: > 20 µM (inactive)

Nc1c(C(=O)NCc2ccco2)c2nc3ccccc3nc2n1Cc1ccc(F)cc1
EC50 [9]: 168 µM (active) | EC50 [10]: 348 µM (active)

CN1C[C@@H]2C(c3ccccc3)C3(c4ccc(C#N)cc4)CC2(C3)[C@H]1c1ccccc1 (some centres not stated)
AC50 (Cytochrome P450 3A4): 25.1 µM (inconclusive)

NC(=S)N=Nc1c(O)[nH]c2ccccc12
IC50 [2]: > 20 µM (inactive)

CCO/C(O)=C1/C(C)=NC(SC)=C(C#N)C1CC(C)C (configuration not stated)
EC50 (BJ [11]): 35 µM (inconclusive) | EC50 (BJ [12]): 6.28 µM (inconclusive) | EC50 (BJ [13]): 7.78 µM (active) | EC50 [14]: 2.97 µM (active)

COc1ccc(C(C(=O)NC2CCCCC2)N(C(=O)CCl)c2ccccc2Cl)cc1 (configuration not stated)
EC50 (BJ [11]): > 150 µM (not active) | EC50 (BJ [12]): > 150 µM (not active) | EC50 (BJ [13]): 0.566 µM (inconclusive) | EC50 [14]: 4.62 µM (inconclusive)

O=[N+]([O-])c1ccc(N2CCNCC2)cc1NC1CC1
AC50 (Cytochrome P450 2C9): 15.8 µM (inconclusive) | EC50 [8]: 0.168 µM (active) | AC50 (Cytochrome P450 2C19): 25.1 µM (inconclusive)

Cc1ccccc1C(=O)Nc1nc(-c2cccnc2)cs1
IC50 [6]: > 54 µM (active)

c1ccc2c(c1)ccc1ncccc12
AC50 (Cytochrome P450 3A4): 31.6 µM (inconclusive)

CCCN(CCC)CCNC(=O)CCC(=O)Nc1ccc2nc(N3CCOCC3)cc(C)c2c1
EC50 [8]: 0.473 µM (active)

CN(CCc1ccccn1)C(=O)CC1C(=O)NCCN1Cc1ccccc1C(F)(F)F (configuration not stated)
EC50 [8]: 5.96 µM (active)

COc1ccc([C@@H]2[C@@H]3C(=O)N(C(C)(C)C)C(=O)[C@@H]3[C@]3(Cc4ccc(Cl)cc4)C(=O)N(c4ccc(Br)cc4)C(=O)N23)cc1
IC50 (Fatty acid synthase [4]): 11.5 µM (active) | IC50 (Fatty acid synthase [5]): 11.2 µM (active)

COc1ccc(C[C@H]2CN3C(=NC[C@@H]3Cc3ccc(O)cc3)N2CCNC(=O)c2ccc(C)c(Br)c2)cc1
IC50 [2]: > 20 µM (inactive)

CCN(CC)CCSc1nc2cc(OC)ccc2[nH]1
EC50 [8]: 0.668 µM (active)

O=C(Nc1ccn(CCCNCc2cccc3ccccc23)c(=O)n1)OCc1ccccc1
CC50 (Vero): > 25 µM (active)

O=C(C=Cc1ccccc1)c1cccs1
CC50 (Vero): > 25 µM (active)

CC(=O)N1N=C(c2ccc(Br)cc2)CC1c1cccc([N+](=O)[O-])c1 (configuration not stated)
IC50 (Fatty acid synthase [4]): 7.1 µM (active) | IC50 (Fatty acid synthase [5]): 5.14 µM (active)

COc1cc(/C=N/NC(=O)c2sc(N)c(C#N)c2C)ccc1O
IC50 [2]: > 20 µM (inactive)

C=CCn1c(/N=C/c2ccc(N(C)C)cc2)nc2ccccc21
EC50 [8]: 6.68 µM (active)

COc1ccc(C(=O)NCC(=O)N/N=C/c2c(C)[nH]c3ccccc23)cc1OC
IC50 (cells): 7.07 µM (active)

CCCCNC(=S)N(C)/N=C/c1ccc(OCC(=O)Nc2c(C)cc(C)cc2C)c(OC)c1
EC50 [9]: 66.4 µM (active) | EC50 [10]: 95.1 µM (active)

CC(=N)/C(C#N)=C(/O)COc1ncnc2ccccc12
IC50 (cells): 1.77 µM (active)

CCCOc1ccc(/C=N/NC(=O)CSCc2ccc([N+](=O)[O-])cc2)cc1OCC
IC50 [2]: 20 µM (active)

CCOC(=O)c1c(NC(=O)N/N=C/c2ccc(O)c(OC)c2)sc(C(C)=O)c1C
IC50 [6]: 1.17 µM (active)

N=c1n(CCN2CCCCC2)c2ccccc2n1CC(O)c1ccc(Cl)c(Cl)c1 (configuration not stated)
EC50 [9]: 4.29 µM (active) | EC50 [15]: 2.08 µM (active) | EC50 [10]: 4.25 µM (active) | EC50 [16]: > 60 µM (not active)
